Holding throughout (format): cell-based
For assay [1], the system named is Alternaria alternata. Briefly: 3 day MIC, broth microdilution in 25% PDB. The settings on record: 72 h, 25% PDB, read-out: 3 day MIC. The method, then: (§1) Stock solutions (concentrations of between 4,000 μg/mL to 10,000 μg/mL; stored at −18° C.) of the above antifungals were prepared in dimethyl sulfoxide (DMSO). The stock solutions were further diluted into sterile 25% potato dextrose broth (PDB) so that the diluted solutions could be used for the antifungal susceptibility studies. This way, a typical microdilution study would reach a final ratio of about 0.5-2% v/v of DMSO in 25% PDB.
(§2) Spore inocula were prepared in sterile distilled water with 0.1% Tween® 20 (a polysorbate surfactant), and a hemocytometer was used to determine the spore density. Typically, the spore inoculum was prepared fresh prior to each study, and the inoculum was appropriately diluted to a final concentration of 0.4-1×10^5 spores/mL or colony-forming unit (CFU)/mL in each study. The spore suspension can be stored in a refrigerator at 4° C. for up to one week.
(§3) The studies were performed in flat bottom, 96-well microtiter plates (Greiner Bio-One, Frickenhausen, Germany).
(§4) Plates sealed with clear polyester film (VWR, Radnor, Pa.) were incubated at a temperature of about 25° C. The progress of fungal growth was monitored at 48 hours and 72 hours.

Assay [2] deals with Stachybotrys chartarum. Briefly: 3 day MIC, broth microdilution in 25% PDB. Particulars: 72 h, 25% PDB, read-out: 3 day MIC. As for the experimental part:
as §1, §2, §3, §4

Assay [3] deals with Stachybotrys chartarum. Nature of the assay: Fungus resistance test after painting over fungal growth (defacement rating). The settings on record: for ability to inhibit Stachybotrys chartarum re-emergence on the surfaces: painting over contaminated surfaces, paints containing 100 μg/mL, after 7 days; for Average defacement rating ± standard deviation: painted over fungal growth, +100 μg/mL in Olympic Home paint. From the text: (§5) In this series of experiments, fungal growth was allowed to cover a painted surface (surface containing 2 coats of the unaltered paint) to a defacement rating of 3-5, forming a ‘contaminated surface’. […] The paint application was extended approximately 1-2 cm beyond the edge of the disc onto the NSA medium. Each formulation used a separate brush to avoid cross contamination. The re-painted discs were placed back into the humid environment with elevated temperature to encourage fungal growth.
(§6) This test was used to evaluate the ability of paint films containing antifungal additives to prevent the re-emergence of fungal growth after painting over existing growth.
(§7) Olympic® Home interior flat latex paint (PPG Industries, Pittsburgh, Pa.) and Valspar® QuikHide White flat interior paint (Valspar Corporation, Minneapolis, Minn.) were used for the experiments in this study unless specified. Stock solutions of the antifungal additives of interest were prepared in reagent grade dimethyl sulfoxide (DMSO; Alfa Aesar, Ward Hill, Mass.). Additives were spiked (by adding appropriate amounts of the antifungal stock solutions) into the liquid paint at specified concentrations. Samples of additive-spiked paint were vigorously mixed with a vortex mixer for at least one minute to insure uniform dispersion of the additive in the paint. […] Studies that used other brands of paint followed the same protocol as described for those using the Olympic® Home interior flat latex paint.
(§8) Test surfaces were prepared in triplicate. In most cases, the tested conditions were repeated on a different date, again in triplicate. […] Two coats of paint were applied with a polyester brush to completely cover both faces of the filter paper disc, allowing at least four hours drying time between coats.
(§9) Nutrient-Salts Agar (NSA) media was prepared according to ASTM method G21-13 in 100×15 mm sterile polystyrene petri dishes (VWR® Radnor, Pa.) with a solidified agar layer from 3 to 6 mm (⅛ to ¼ in.) in depth. The agar was allowed to solidify for at least 24 hours before being used. The painted test filter paper discs were placed in the center of the agar plates in a biosafety hood while wearing clean nitrile gloves.
(§10) The paint coatings were evaluated against three representative fungi: Stachybotrys chartarum, Penicillium chrysogenum, and Alternaria alternata. […] Fungal isolates of Alternaria alternata and Penicillium chrysogenum were obtained from the Plant Pathology and Environmental Microbiology Department at Penn State University.
(§11) A spore suspension of each of these fungi was prepared by pouring a 20-mL portion of autoclaved deionized water containing 0.01% Tween® 20 onto a subculture of each fungal species. Spores were counted with the use of a hemocytometer (Hausser Scientific, Horsham, Pa.) under a microscope. Spore suspensions of Stachybotrys chartarum and Penicillium chrysogenum were diluted to 1×10^6 spores/mL with autoclaved deionized water. Spore suspensions of Alternaria alternata were used “as is” in the range of 200,000 to 400,000 spores/mL.
(§12) Painted test surfaces were inoculated with a spray bottle or with a cotton-tipped applicator. To inoculate the sample with a spray bottle, the spore suspension was sprayed twice on the painted test discs with a spray bottle that delivered approximately 0.14 g of fluid per spray. To inoculate the sample with a cotton-tipped applicator, an autoclaved cotton-tipped applicator was submerged in approximately 400 μL of the inoculum solution and applied evenly over the surface of the painted test surface twice.

Assay [4] concerns Penicillium brevicompactum. Nature of the assay: 3 day MIC, broth microdilution in 25% PDB. The settings on record: 72 h, 25% PDB, read-out: 3 day MIC. The method, then:
as §1, §2, §3, §4

For assay [5], the system named is Penicillium chrysogenum. Briefly: 3 day MIC, broth microdilution in 25% PDB. The settings on record: 72 h, 25% PDB, read-out: 3 day MIC. As for the experimental part: as §1, §2, §3, §4
The next assay concerns Penicillium corylophilum. Nature of the assay: 3 day MIC, broth microdilution in 25% PDB. The settings on record: 72 h, 25% PDB, read-out: 3 day MIC. As for the experimental part:
as §1, §2, §3, §4

The next assay concerns Penicillium purpurogenum. Briefly: 3 day MIC, broth microdilution in 25% PDB. The settings on record: 72 h; Penicillium purpurogenum; 25% PDB; read-out: 3 day MIC. As for the experimental part:
as §1, §2, §3, §4

The subject of assay [6] is Alternaria alternata. Briefly: Fungus resistance test for painted surfaces containing antifungal additives (defacement rating). The settings on record: +100 μg/mL in Olympic Home paint. As for the experimental part:
(§13) A Defacement Rating is measured by estimating the percentage of surface defacement with 10 being no defacement and 0 begin completely defaced.
(§14) This test was used to evaluate the resistance of paint films containing antifungal additives to surface fungal growth.
(§15) Olympic® Home interior flat latex paint (PPG Industries, Pittsburgh, Pa.) and Valspar® QuikHide White flat interior paint (Valspar Corporation, Minneapolis, Minn.) were used for all studies unless otherwise noted. Stock solutions of the antifungal additives of interest were prepared in reagent grade dimethyl sulfoxide (DMSO; Alfa Aesar, Ward Hill, Mass.). Additives were spiked (by adding appropriate amounts of the antifungal stock solutions) into the liquid paint at specified concentrations. Samples of the additive-spiked paint were vigorously mixed with a vortex mixer for at least one minute to ensure uniform dispersion of the additive in the paint. […] Studies that use other brands of paint followed the same protocol as described for those using the Olympic® Home interior flat latex paint and Valspar® QuikHide paint.
as §8
(§16) Nutrient-Salts Agar (NSA) medium was prepared according to ASTM method G21-13 in 100×15 mm sterile polystyrene petri dishes (VWR® Radnor, Pa.) with a solidified agar layer of about 3 to about 6 mm (⅛ to ¼ in.) in depth. The agar was allowed to solidify for at least 24 hours before being used. The painted test filter paper discs were placed in the center of the agar plates in a biosafety hood while wearing clean nitrile gloves.
(§17) The paint coatings were evaluated against three representative cellulose-supportable fungi: Stachybotrys chartarum, Penicillium chrysogenum, and Alternaria alternata. […] Fungal isolates of Alternaria alternata and Penicillium chrysogenum were obtained from the Plant Pathology and Environmental Microbiology Department at Penn State University.
(§18) A spore suspension of each of these fungi was prepared by pouring a 20-mL portion of autoclaved deionized water containing 0.01% Tween® 20 onto a subculture of each fungal species. Spores were counted with the use of a hemocytometer (Hausser Scientific, Horsham, Pa.) under a compound light microscope. Spore suspensions of Stachybotrys chartarum and Penicillium chrysogenum were diluted to 1×10^6 spores/mL with autoclaved deionized water. Spore suspensions of Alternaria alternata were used “as is” in the range of 200,000 to 400,000 spores/mL.
(§19) Painted test surfaces were inoculated with a spray bottle or with a sterile cotton-tipped applicator. To inoculate the sample with a spray bottle, the spore suspension was sprayed twice on the painted test discs with an autoclaved spray bottle that delivered approximately 0.14 g of fluid per spray. To inoculate the sample with a cotton-tipped applicator, an autoclaved cotton-tipped applicator was submerged in approximately 400 μL of the spore inoculum solution (spore concentrations described above) and applied evenly over the surface of the painted test surface twice. A fresh autoclaved cotton-tipped applicator was used for the application of each painted disc. All the paint studies with Alternaria alternata and Stachybotrys chartarum were inoculated using the spray bottle method. For studies with Penicillium chrysogenum using Olympic® Home paint, the spray bottle inoculation method was used. For studies with Penicillium chrysogenum using Valspar® QuikHide paint, the cotton-tipped applicator inoculation method was used.
(§20) After inoculation, the NSA agar plates were sealed with Parafilm®.

For assay [7], the system named is Penicillium chrysogenum. Described as above. The method, then:
as §13, §14, §15, §8, §16, §17, §18, §19, §20

Assay [8] has as its system Stachybotrys chartarum. The assay is described as above. Particulars: +100 μg/mL in Olympic Home paint. The method, then: as §13, §14, §15, §8, §16, §17, §18, §19, §20
The subject of assay [9] is Alternaria alternata. Briefly: Fungus resistance test after painting over fungal growth (defacement rating). Particulars: painted over fungal growth, +100 μg/mL in Olympic Home paint.
Text: as §5, §6, §7, §8, §9, §10, §11, §12

Assay [10] concerns Penicillium chrysogenum. The assay is described as above. The settings on record: painted over fungal growth, +200 μg/mL in Valspar QuikHide paint.
Text: as §5, §6, §7, §8, §9, §10, §11, §12

Values after ≈ are worked out from the molar mass of the structure shown.

As to `OB1OCCc2cc(F)ccc21` [Compound B5, 6-fluoro-3,4-dihydro-1H-2,1-benzoxaborinin-1-ol], the figures for the MIC in the assay on Alternaria alternata [1] and in the assay on Stachybotrys chartarum [2] were 200 µg/mL (≈ 1210 µM) and 6.3 µg/mL (≈ 38 µM), respectively. In the assay with Stachybotrys chartarum [3], the “ability to inhibit Stachybotrys chartarum re-emergence on the surfaces” value is reported as “very little ability to inhibit”.

In the case of `O=C(O)c1ccc2c(c1)COB2O` [Compound B10, 1-hydroxy-1,3-dihydro-2,1-benzoxaborole-5-carboxylic acid], the MIC in the assay with Alternaria alternata [1] was 200 µg/mL (≈ 1120 µM); in assay [4] it was over 200 µg/mL; with Penicillium chrysogenum [5], over 200 µg/mL; in the assay with Penicillium corylophilum it was over 200 µg/mL; with Penicillium purpurogenum, over 200 µg/mL; in the assay on Stachybotrys chartarum [2], 100 µg/mL (≈ 562 µM).

As for `OB1OCc2ccccc21` [Compound B0, 2-(hydroxymethyl)-benzene boronic acid hemiester], the “Average defacement rating ± standard deviation” value is 2.3 ± 2.3 in the assay on Alternaria alternata [6] (7 days); 0.5 ± 1.8 in the assay with Alternaria alternata [6] (14 days); 0.0 ± 0.0 in the assay on Alternaria alternata [6] (21 days); 2.7 ± 0.8 in the assay on Penicillium chrysogenum [7] (+100 μg/mL in Olympic Home paint, 7 days); 0.0 ± 0.0 in the assay with Penicillium chrysogenum [7] (+100 μg/mL in Olympic Home paint, 14 days); 0.0 ± 0.0 in the assay on Penicillium chrysogenum [7] (+100 μg/mL in Olympic Home paint, 21 days). Further, the “Average defacement rating ± standard deviation” value was 10.0 ± 0.0 in the assay with Penicillium chrysogenum [7] (+200 μg/mL in Olympic Home paint, 7 days); 6.8 ± 4.0 in the assay on Penicillium chrysogenum [7] (+200 μg/mL in Olympic Home paint, 14 days); 5.0 ± 5.5 in the assay on Penicillium chrysogenum [7] (+200 μg/mL in Olympic Home paint, 21 days); 10.0 ± 0.0 in the assay with Penicillium chrysogenum [7] (+200 μg/mL in Valspar QuikHide paint, 7 days); 6.8 ± 4.0 in the assay with Penicillium chrysogenum [7] (+200 μg/mL in Valspar QuikHide paint, 14 days); 5.0 ± 5.5 with Penicillium chrysogenum [7] (+200 μg/mL in Valspar QuikHide paint, 21 days). Moreover, the “Average defacement rating ± standard deviation” value with Stachybotrys chartarum [8] (7 days) is given as 0.7 ± 1.3; in the assay with Stachybotrys chartarum [8] (14 days), 0.0 ± 0.0; in the assay with Stachybotrys chartarum [8] (21 days), 0.0 ± 0.0; in the assay on Alternaria alternata [9] (7 days), 2.1 ± 1.6 (6); in the assay with Alternaria alternata [9] (14 days) it was 1.0 ± 1.3 (6); in the assay on Alternaria alternata [9] (21 days), 0.4 ± 0.6 (6). For the same molecule, the “Average defacement rating ± standard deviation” value in the assay with Penicillium chrysogenum [10] (7 days) is 0.0 ± 0.0 (9); in the assay with Penicillium chrysogenum [10] (14 days), 0.0 ± 0.0 (9); with Penicillium chrysogenum [10] (21 days), 0.0 ± 0.0 (9); in the assay on Stachybotrys chartarum [3] (7 days), 6.1 ± 3.3 (9); in the assay with Stachybotrys chartarum [3] (14 days), 4.4 ± 3.0 (9); in the assay with Stachybotrys chartarum [3] (21 days), 3.9 ± 2.9 (9).

On to `Nc1ccc2c(c1)B(O)OCC2` [Compound B7, 7-amino-3,4-dihydro-1H-2,1-benzoxaborinin-1-ol], for which the figures for the MIC with Alternaria alternata [1] and in the assay on Stachybotrys chartarum [2] were over 200 µg/mL and 25 µg/mL (≈ 153 µM), respectively. In addition, the “ability to inhibit Stachybotrys chartarum re-emergence on the surfaces” value with Stachybotrys chartarum [3] was “very little ability to inhibit”.

With `N#Cc1ccc2c(c1)COB2O` [Compound B11, 1-hydroxy-1,3-dihydro-2,1-benzoxaborole-5-carbonitirile], the minimal inhibitory concentration (MIC) in the assay on Alternaria alternata [1] came out at 100 µg/mL (≈ 629 µM); in assay [4], 50 µg/mL (≈ 315 µM); in the assay with Penicillium chrysogenum [5] it was 100 µg/mL (≈ 629 µM); in the assay with Penicillium corylophilum, 100 µg/mL (≈ 629 µM); in the assay on Penicillium purpurogenum, 25 µg/mL (≈ 157 µM); in the assay on Stachybotrys chartarum [2], 12.5 µg/mL (≈ 78.6 µM).

The values are drawn from patent publication US10160867B2, “Benzoxaborole-containing coating resistant to cellulose-supportable fungus” (THE PENN STATE RESEARCH FOUNDATION, priority 2015, dated 2018).
